Results: article PMC10360056, “Chemical Evolution of Amphiphilic Xenopeptides for Potentiated Cas9 Ribonucleoprotein Delivery” (Journal of the American Chemical Society, 2023)

Key:
[1] = tested on: HeLa eGFP/tub cells; experiment: eGFP knockout study by Cas9 RNP nanocarriers, flow cytometry; type: cell-based; conditions: 48 h treatment
Protocol: (§1) HeLa WT, HeLa eGFP/tub, HeLa GFPd2 (destabilized eGFP), CT26 eGFP/luc and N2a eGFP/luc cells were grown in DMEM medium supplemented with 10 % FBS, 100 U/mL penicillin, and 100 μg/mL streptomycin. The cells were cultured in ventilated flasks in the cell incubator at 37 °C and 5 % CO2 in a humidified atmosphere. The cells were passaged at a confluency of […]
(§2) Cells were harvested and resuspended in 600 μL of FACS buffer (PBS buffer containing 10 % FBS). The samples were ana-lyzed by flow cytometry on a CytoFLEX S flow cytometer (Beckman Coulter, CA, USA). For eGFP knockout and cellular uptake experiments, 0.6 μL of 1 μg/μL DAPI was added to each sample for differentiating live and dead cells before the measurement. The DAPI signal and BFP fluorescence were detected with 405 nm excitation and 450 nm emission. The eGFP and ATTO488 fluorescence was assayed with 488 nm excitation and 530 nm emission. The ATTO647N fluorescence was assayed with 640 nm excitation and 670 nm emission. Ten thousand of isolated live cells were counted and evaluated. The data were analyzed using FlowJo 7.6.5 by FlowJo, LLC (Becton, Dickinson and Company, USA). […]
(§3) Endosomal escape of Cas9 RNP nanocarriers […]
(§4) Next, the […]
(§5) cells were washed twice with PBS and then fixed with 4 % PFA at RT for 40 min. Afterwards, the cells were washed and incubated with 2 µg/mL DAPI (for staining cell nuclei) for 30 min. Then, the staining solution was removed and 300 μL fresh PBS were added. The slides w ere stored at 4 °C in the dark until the measurement. […]
(§6) Then, the image was conv erted into 8-bit type. The mRuby3/gal8 spots were further determined by Threshold tool, and the number of the spots in the cell cytosol per cell were counted by Analyze Particles tool.
One day prior to the treatments, HeLa eGFP/tub cell s were seeded into 96 -well plates at a density of 5000 cells/well. On the next day, the medium was replaced with 80 μL of fresh medium. 20 μL of Cas9 RNP nanocarriers were added to each well resulting in a series of concentrations of RNP (100, 75, 50, 25, 10, 5, 2.5, 1, 0.5, and 0.1 nM). Lipofectamine CRISPRMAX was tested at the same concentrations of RNP with the preparation procedures as recommended by the manufacturer. The cells were incubated for 48 h. Afterwards, the cells were trypsinized and transfer red to 24-well plates, and incubated for another 72 h. Then, the cells were harvested and prepared for flow cytometry analysis. All experiments were performed in triplicate. eGFP to BFP conversion (HDR) study
One day prior to the treatments, HeLa GFPd2 cel ls were seeded into 96 -well plates at a density of 5000 cells/well. On the next day, the medium was replaced with 80 μL of fresh medium. 20 μL of Cas9 RNP/ssDNA nanocarriers containing different molar ratios of RNP/ssDNA were added to each well resulting i n a series of concentrations of RNP (100, 75, 50, 25, 10, 5, 2.5, 1, 0.5, and 0.1 nM). Lipofectamine CRISPRMAX was tested at the same concentrations of RNP and ssDNA with the prepara-tion procedures as recommended by the manufacturer. The cells were incubat ed for 48 h. Afterwards, the cells were trypsinized and transferred to 24 -well plates, and incubated for another 72 h. Then, the cells were harvested and prepared for flow cytom-etry analysis. […]
Half maximal effective concentration (EC50) values were calculated by GraphPad prism 5. […] All other data were analyzed with GraphPad prism 5 and presented as arithmetic mean ± standard deviation (SD) of at least triplicates. […]

[2] = tested on: HeLa WT cells; experiment: Endocytosis pathway study with inhibitors; type: cell-based; conditions: 1 mM amiloride 2 h, 75 nM RNP, 4 h, flow cytometry
Protocol: sgRNA amount in naked Cas9/sgRNA ribonucleoproteins (Cas9 RNPs) or Cas9 RNP nanocarriers were determined using a Quant-iTTM RiboGreen® RNA assay kit (Invitrogen, CA, USA). 50 μL of naked Cas9 RNPs or Cas9 RNP nanocarriers con-taining 250 ng Cas9 protein and 50 ng sgRNA were mixed with 50 μL of TE buffer and were added to the 96-well plate. The plate was incubated for 10 min. Afterwards, 100 μL of Ribogreen solution (diluted 1:100 in TE buffer) was added to each well.
The plate was incubated for another 5 min. Ribogreen fluorescence intensity was detected using a microplate reader (Spectra-fluor Plus, Tecan, Männedorf, Switzerland) with excitation and emission wavelength of 485 and 528 nm, respectively. […]
Cells were harvested and resuspended in 600 μL of FACS buffer (PBS buffer containing 10 % FBS). […] The DAPI signal and BFP fluorescence were detected with 405 nm excitation and 450 nm emission. The eGFP and ATTO488 fluorescence was assayed with 488 nm excitation and 530 nm emission. The ATTO647N fluorescence was assayed with 640 nm excitation and 670 nm emission. Ten thousand of isolated live cells were counted and evaluated. The data were analyzed using FlowJo 7.6.5 by FlowJo, LLC (Becton, Dickinson and Company, USA).
Cell viability was determined using an MTT assay. […]
Cellular uptake of Cas9 RNP nanocarriers was evaluated by flow cytometry and confocal laser scanning microscopy (CLSM). […]

[3] = tested on: CT26 eGFP/luc cells; experiment: eGFP knockout in CT26 eGFP/luc cells; type: cell-based, murine; conditions: 1 nM RNP, 48 h treatment
Protocol: as §1, §2, §3
(§7) Then, the image was conv erted into 8-bit type. The mRuby3/gal8 spots were further determined by Threshold tool, and the number of the spots in the cell cytosol per cell were counted by Analyze Particles tool. […]

[4] = tested on: N2a eGFP/luc cells; experiment: eGFP knockout in N2a eGFP/luc cells; type: cell-based, murine; conditions: 1 nM RNP, 48 h treatment
Protocol: as §1, §2, §3, §7

[5] = tested on: HeLa GFPd2 cells; experiment: eGFP to BFP conversion (HDR) study, Cas9 RNP/ssDNA co-delivery; type: cell-based; conditions: for HDR: RNP/ssDNA 1/4, 48 h
Protocol: as §1, §2, §3, §4, §5, §6
One day prior to the treatments, HeLa eGFP/tub cell s were seeded into 96 -well plates at a density of 5000 cells/well. On the next day, the medium was replaced with 80 μL of fresh medium. 20 μL of Cas9 RNP nanocarriers were added to each well resulting in a series of concentrations of RNP (100, 75, 50, 25, 10, 5, 2.5, 1, 0.5, and 0.1 nM). […]

Compound	eGFP knockout ([1]; 1 nM RNP, N/P 24) [%]	Cas9 RNP uptake after pretreatment with amiloride (macropinocytosis) [2]	eGFP knockout (disruption) ([1]; 0.5 nM (500 pM) RNP) [%]	eGFP knockout ([1]; RNP concentrations down to 5 nM)	eGFP knockout [3] [%]	eGFP knockout [4] [%]	HDR ([5]; HeLa GFPd2, 0.5 nM RNP) [%]	HDR ([5]; HeLa GFPd2, 1 nM RNP) [%]	HDR efficiency ([5]; HeLa GFPd2, 10 nM RNP, RNP/ssDNA ratio 1/8, N/P 12, 48 h) [%]
CCCCC/C=C\C/C=C\CCCCCCCC(=O)NCCCC[C@H](NC(=O)CCCCCCC/C=C\C/C=C\CCCCC)C(=O)NCCCC[C@H](NC(=O)CCC(=O)NCCNCCNCCNCCNC(=O)[C@H](Cc1ccc(O)cc1)NC(=O)[C@H](Cc1ccc(O)cc1)NC(=O)[C@H](Cc1ccc(O)cc1)NC(=O)[C@@H](N)CCCCN=[N+]=[N-])C(=O)NCCNCCNCCNCCNC(=O)CCC(=O)N[C@@H](Cc1ccc(O)cc1)C(=O)N[C@@H](Cc1ccc(O)cc1)C(=O)N[C@@H](Cc1ccc(O)cc1)C(=O)O [Stp1-LinA]	~80	blocked							
CCCCC/C=C\C/C=C\CCCCCCCC(=O)NCCCC[C@H](NC(=O)CCCCCCC/C=C\C/C=C\CCCCC)C(=O)NCCCC[C@H](NC(=O)CN(CC(=O)NCCNCCNCCNCCNC(=O)[C@H](Cc1ccc(O)cc1)NC(=O)[C@H](Cc1ccc(O)cc1)NC(=O)[C@H](Cc1ccc(O)cc1)NC(=O)[C@@H](N)CCCCN=[N+]=[N-])CC(F)(F)F)C(=O)NCCNCCNCCNCCNC(=O)CN(CC(=O)N[C@@H](Cc1ccc(O)cc1)C(=O)N[C@@H](Cc1ccc(O)cc1)C(=O)N[C@@H](Cc1ccc(O)cc1)C(=O)O)CC(F)(F)F [TFE-IDAtp1-LinA]	~88		~61	up to 99%	~55	13.4	~11	~23	~28
